# Results: ChEMBL document CHEMBL5385961, “In vitro and in vivo evaluation of novel chromeno[2,3-d]pyrimidinones as therapeutic agents for triple negative breast cancer” (RSC Med Chem, 2024)
# Test system: Hs-578T
# Assay: Cytotoxicity against human Hs-578T cells assessed as cell viability at 10 uM incubated for 72 hrs by SRB assay relative to control
# Type: functional
# Conditions: read-out: Activity
row,SMILES,viability at 10 µM [%]
1,COc1ccc(OC)c(-c2nc3c(c(=O)[nH]2)Cc2cc(Cl)ccc2O3)c1,91.7
2,COc1cccc2c1OC1=NC(c3ccc4c(c3)OCO4)NC(=O)C1=C2 (configuration not stated),100
3,COc1cc(OC)c(C2N=C3Oc4ccc(Br)cc4C=C3C(=O)N2)c(OC)c1 (configuration not stated),95.2
4,COc1cccc2c1Oc1nc(-c3cccc(O)c3)[nH]c(=O)c1C2,75.9
5,Cc1ccc2c(c1)Cc1c(nc(-c3ccccc3)[nH]c1=O)O2,96
6,O=c1[nH]c(-c2ccccc2)nc2c1Cc1ccccc1O2,76.3
7,COc1cccc2c1Oc1nc(-c3ccc(Br)cc3)[nH]c(=O)c1C2,97.7
8,O=c1[nH]c(-c2ccc3c(c2)OCO3)nc2c1Cc1cc(Br)ccc1O2,86.1
9,COc1cccc2c1Oc1nc(-c3cccc(Br)c3)[nH]c(=O)c1C2,66.8
10,COc1cccc2c1Oc1nc(-c3ccc(F)cc3)[nH]c(=O)c1C2,97.5
11,COc1ccc2c(c1)Cc1c(nc(-c3cccc(Cl)c3)[nH]c1=O)O2,76
12,COc1ccc2c(c1)Cc1c(nc(-c3ccccc3OC)[nH]c1=O)O2,87.5
13,COc1cc(OC)c(C2N=C3Oc4c(cccc4OC)C=C3C(=O)N2)c(OC)c1 (configuration not stated),94.8
14,Cc1cccc2c1Oc1nc(-c3ccccc3)[nH]c(=O)c1C2,81.3
15,COc1ccccc1-c1nc2c(c(=O)[nH]1)Cc1cccc(OC)c1O2,86
16,COc1ccc(OC)c(-c2nc3c(c(=O)[nH]2)Cc2cccc(OC)c2O3)c1,72.7
17,COc1cccc2c1Oc1nc(-c3ccco3)[nH]c(=O)c1C2,99.8

# Test system: Hs-578T
# Assay: Cytotoxicity against human Hs-578T cells assessed as cell viability at 30 uM incubated for 72 hrs by SRB assay relative to control
# Type: functional
# Conditions: read-out: Activity
row,SMILES,viability at 30 µM [%]
1,COc1ccc(OC)c(-c2nc3c(c(=O)[nH]2)Cc2cc(Cl)ccc2O3)c1,92
2,COc1cccc2c1OC1=NC(c3ccc4c(c3)OCO4)NC(=O)C1=C2 (configuration not stated),96.5
3,COc1cc(OC)c(C2N=C3Oc4ccc(Br)cc4C=C3C(=O)N2)c(OC)c1 (configuration not stated),68.6
4,COc1cccc2c1Oc1nc(-c3cccc(O)c3)[nH]c(=O)c1C2,67.3
5,Cc1ccc2c(c1)Cc1c(nc(-c3ccccc3)[nH]c1=O)O2,73.3
6,O=c1[nH]c(-c2ccccc2)nc2c1Cc1ccccc1O2,65.4
7,COc1cccc2c1Oc1nc(-c3ccc(Br)cc3)[nH]c(=O)c1C2,84.4
8,O=c1[nH]c(-c2ccc3c(c2)OCO3)nc2c1Cc1cc(Br)ccc1O2,78.5
9,COc1cccc2c1Oc1nc(-c3cccc(Br)c3)[nH]c(=O)c1C2,40.6
10,COc1cccc2c1Oc1nc(-c3ccc(F)cc3)[nH]c(=O)c1C2,84.4
11,COc1ccc2c(c1)Cc1c(nc(-c3cccc(Cl)c3)[nH]c1=O)O2,74.7
12,COc1ccc2c(c1)Cc1c(nc(-c3ccccc3OC)[nH]c1=O)O2,65.6
13,COc1cc(OC)c(C2N=C3Oc4c(cccc4OC)C=C3C(=O)N2)c(OC)c1 (configuration not stated),86
14,Cc1cccc2c1Oc1nc(-c3ccccc3)[nH]c(=O)c1C2,62.1
15,COc1ccccc1-c1nc2c(c(=O)[nH]1)Cc1cccc(OC)c1O2,80.2
16,COc1ccc(OC)c(-c2nc3c(c(=O)[nH]2)Cc2cccc(OC)c2O3)c1,74
17,COc1cccc2c1Oc1nc(-c3ccco3)[nH]c(=O)c1C2,90.7

# Test system: MDA-MB-231
# Assay: Cytotoxicity against human MDA-MB-231 cells assessed as cell viability at 10 uM incubated for 72 hrs by SRB assay relative to control
# Type: functional
# Conditions: read-out: Activity
row,SMILES,viability at 10 µM [%]
1,COc1ccc(OC)c(-c2nc3c(c(=O)[nH]2)Cc2cc(Cl)ccc2O3)c1,91
2,COc1cccc2c1OC1=NC(c3ccc4c(c3)OCO4)NC(=O)C1=C2 (configuration not stated),88.2
3,COc1cc(OC)c(C2N=C3Oc4ccc(Br)cc4C=C3C(=O)N2)c(OC)c1 (configuration not stated),80.6
4,COc1cccc2c1Oc1nc(-c3cccc(O)c3)[nH]c(=O)c1C2,102
5,Cc1ccc2c(c1)Cc1c(nc(-c3ccccc3)[nH]c1=O)O2,90.1
6,O=c1[nH]c(-c2ccccc2)nc2c1Cc1ccccc1O2,69.3
7,COc1cccc2c1Oc1nc(-c3ccc(Br)cc3)[nH]c(=O)c1C2,83.7
8,O=c1[nH]c(-c2ccc3c(c2)OCO3)nc2c1Cc1cc(Br)ccc1O2,85.3
9,COc1cccc2c1Oc1nc(-c3cccc(Br)c3)[nH]c(=O)c1C2,92
10,COc1cccc2c1Oc1nc(-c3ccc(F)cc3)[nH]c(=O)c1C2,105
11,COc1ccc2c(c1)Cc1c(nc(-c3cccc(Cl)c3)[nH]c1=O)O2,80.7
12,COc1ccc2c(c1)Cc1c(nc(-c3ccccc3OC)[nH]c1=O)O2,85
13,COc1cc(OC)c(C2N=C3Oc4c(cccc4OC)C=C3C(=O)N2)c(OC)c1 (configuration not stated),83.6
14,Cc1cccc2c1Oc1nc(-c3ccccc3)[nH]c(=O)c1C2,32.6
15,COc1ccccc1-c1nc2c(c(=O)[nH]1)Cc1cccc(OC)c1O2,82.9
16,COc1ccc(OC)c(-c2nc3c(c(=O)[nH]2)Cc2cccc(OC)c2O3)c1,87.1
17,COc1cccc2c1Oc1nc(-c3ccco3)[nH]c(=O)c1C2,92.8

# Test system: MDA-MB-231
# Assay: Cytotoxicity against human MDA-MB-231 cells assessed as cell viability at 30 uM incubated for 72 hrs by SRB assay relative to control
# Type: functional
# Conditions: read-out: Activity
row,SMILES,viability at 30 µM [%]
1,COc1ccc(OC)c(-c2nc3c(c(=O)[nH]2)Cc2cc(Cl)ccc2O3)c1,78
2,COc1cccc2c1OC1=NC(c3ccc4c(c3)OCO4)NC(=O)C1=C2 (configuration not stated),62.2
3,COc1cc(OC)c(C2N=C3Oc4ccc(Br)cc4C=C3C(=O)N2)c(OC)c1 (configuration not stated),64.4
4,COc1cccc2c1Oc1nc(-c3cccc(O)c3)[nH]c(=O)c1C2,102
5,Cc1ccc2c(c1)Cc1c(nc(-c3ccccc3)[nH]c1=O)O2,65.6
6,O=c1[nH]c(-c2ccccc2)nc2c1Cc1ccccc1O2,53.2
7,COc1cccc2c1Oc1nc(-c3ccc(Br)cc3)[nH]c(=O)c1C2,80.4
8,O=c1[nH]c(-c2ccc3c(c2)OCO3)nc2c1Cc1cc(Br)ccc1O2,77.8
9,COc1cccc2c1Oc1nc(-c3cccc(Br)c3)[nH]c(=O)c1C2,80.8
10,COc1cccc2c1Oc1nc(-c3ccc(F)cc3)[nH]c(=O)c1C2,97.8
11,COc1ccc2c(c1)Cc1c(nc(-c3cccc(Cl)c3)[nH]c1=O)O2,44.2
12,COc1ccc2c(c1)Cc1c(nc(-c3ccccc3OC)[nH]c1=O)O2,65.9
13,COc1cc(OC)c(C2N=C3Oc4c(cccc4OC)C=C3C(=O)N2)c(OC)c1 (configuration not stated),77.4
14,Cc1cccc2c1Oc1nc(-c3ccccc3)[nH]c(=O)c1C2,15.9
15,COc1ccccc1-c1nc2c(c(=O)[nH]1)Cc1cccc(OC)c1O2,63.6
16,COc1ccc(OC)c(-c2nc3c(c(=O)[nH]2)Cc2cccc(OC)c2O3)c1,88.4
17,COc1cccc2c1Oc1nc(-c3ccco3)[nH]c(=O)c1C2,85.8

# Test system: MCF7
# Assay: Cytotoxicity against human MCF7 cells assessed as cell viability at 10 uM incubated for 72 hrs by SRB assay relative to control
# Type: functional
# Conditions: read-out: Activity
row,SMILES,viability at 10 µM [%]
1,COc1ccc(OC)c(-c2nc3c(c(=O)[nH]2)Cc2cc(Cl)ccc2O3)c1,69.2
2,COc1cccc2c1OC1=NC(c3ccc4c(c3)OCO4)NC(=O)C1=C2 (configuration not stated),84.9
3,COc1cc(OC)c(C2N=C3Oc4ccc(Br)cc4C=C3C(=O)N2)c(OC)c1 (configuration not stated),90.6
4,COc1cccc2c1Oc1nc(-c3cccc(O)c3)[nH]c(=O)c1C2,38
5,Cc1ccc2c(c1)Cc1c(nc(-c3ccccc3)[nH]c1=O)O2,85.8
6,O=c1[nH]c(-c2ccccc2)nc2c1Cc1ccccc1O2,88.5
7,COc1cccc2c1Oc1nc(-c3ccc(Br)cc3)[nH]c(=O)c1C2,83.8
8,O=c1[nH]c(-c2ccc3c(c2)OCO3)nc2c1Cc1cc(Br)ccc1O2,83.4
9,COc1cccc2c1Oc1nc(-c3cccc(Br)c3)[nH]c(=O)c1C2,78.4
10,COc1cccc2c1Oc1nc(-c3ccc(F)cc3)[nH]c(=O)c1C2,88.8
11,COc1ccc2c(c1)Cc1c(nc(-c3cccc(Cl)c3)[nH]c1=O)O2,79.3
12,COc1ccc2c(c1)Cc1c(nc(-c3ccccc3OC)[nH]c1=O)O2,90.6
13,COc1cc(OC)c(C2N=C3Oc4c(cccc4OC)C=C3C(=O)N2)c(OC)c1 (configuration not stated),99.9
14,Cc1cccc2c1Oc1nc(-c3ccccc3)[nH]c(=O)c1C2,34.7
15,COc1ccccc1-c1nc2c(c(=O)[nH]1)Cc1cccc(OC)c1O2,85.5
16,COc1ccc(OC)c(-c2nc3c(c(=O)[nH]2)Cc2cccc(OC)c2O3)c1,77.7
17,COc1cccc2c1Oc1nc(-c3ccco3)[nH]c(=O)c1C2,98.9

# Test system: MCF7
# Assay: Cytotoxicity against human MCF7 cells assessed as cell viability at 30 uM incubated for 72 hrs by SRB assay relative to control
# Type: functional
# Conditions: read-out: Activity
row,SMILES,viability at 30 µM [%]
1,COc1ccc(OC)c(-c2nc3c(c(=O)[nH]2)Cc2cc(Cl)ccc2O3)c1,62.6
2,COc1cccc2c1OC1=NC(c3ccc4c(c3)OCO4)NC(=O)C1=C2 (configuration not stated),82.1
3,COc1cc(OC)c(C2N=C3Oc4ccc(Br)cc4C=C3C(=O)N2)c(OC)c1 (configuration not stated),76.2
4,COc1cccc2c1Oc1nc(-c3cccc(O)c3)[nH]c(=O)c1C2,25.4
5,Cc1ccc2c(c1)Cc1c(nc(-c3ccccc3)[nH]c1=O)O2,73.1
6,O=c1[nH]c(-c2ccccc2)nc2c1Cc1ccccc1O2,79.2
7,COc1cccc2c1Oc1nc(-c3ccc(Br)cc3)[nH]c(=O)c1C2,75.3
8,O=c1[nH]c(-c2ccc3c(c2)OCO3)nc2c1Cc1cc(Br)ccc1O2,83.1
9,COc1cccc2c1Oc1nc(-c3cccc(Br)c3)[nH]c(=O)c1C2,52.4
10,COc1cccc2c1Oc1nc(-c3ccc(F)cc3)[nH]c(=O)c1C2,82.9
11,COc1ccc2c(c1)Cc1c(nc(-c3cccc(Cl)c3)[nH]c1=O)O2,45.8
12,COc1ccc2c(c1)Cc1c(nc(-c3ccccc3OC)[nH]c1=O)O2,70.4
13,COc1cc(OC)c(C2N=C3Oc4c(cccc4OC)C=C3C(=O)N2)c(OC)c1 (configuration not stated),91.8
14,Cc1cccc2c1Oc1nc(-c3ccccc3)[nH]c(=O)c1C2,23.8
15,COc1ccccc1-c1nc2c(c(=O)[nH]1)Cc1cccc(OC)c1O2,54.8
16,COc1ccc(OC)c(-c2nc3c(c(=O)[nH]2)Cc2cccc(OC)c2O3)c1,76.6
17,COc1cccc2c1Oc1nc(-c3ccco3)[nH]c(=O)c1C2,100
